{
  "source": "patent US20230138327A1",
  "about": "“COMPOSITIONS AND METHODS CONTAINING REDUCED NICOTINAMIDE RIBOSIDE FOR PREVENTION AND TREATMENT OF PANCREATIC DISEASES AND CONDITIONS” (SOCIETE DES PRODUITS NESTLE S.A., priority 2020, published 2023)",
  "key": {"mice": {"system": "mice", "test": "Hepatic NAD+ levels in mice after oral administration", "format": "in vivo", "procedure": "8 week-old C57BI/6NTac mice were orally gavaged with either saline (as vehicle), NR (500 mg/kg) or NRH (500 mg/kg). After 1 hour, liver, skeletal muscle and kidney NAD levels were evaluated. All results are expressed as mean +/−SEM of n=5 mice per group. * indicates statistical difference at p<0.05 vs. vs. saline-treated mice. #indicates statistical difference at p<0.05 vs. NR treated mice.\nOral administration of NRH led to very similar results to those observed after IP administration. […] NRH was detectable in plasma 1 h after oral administration. In contrast, NR levels were undetectable at 1 h after NR administration."}, "C2C12 myotubes": {"system": "C2C12 myotubes", "test": "NAD+ levels in C2C12 myotubes after NRH treatment", "format": "cell-based"}, "AML12 cells": {"system": "AML12 cells", "test": "Pathway of NRH-induced NAD+ synthesis: intracellular metabolites and pathway inhibitors", "format": "cell-based", "procedure": "FIG. 4. NRH leads to NAD+ biosynthesis through an adenosine kinase dependent path. AML12 cells were treated with an adenosine kinase inhibitor (5-IT; […]) for 1 hour prior to NRH treatment at the doses indicated. Then, 1 hour later, acidic extracts were obtained to measure NAD levels. All values in the figure are expressed as mean+/−SEM of 3 independent experiments. * indicates statistical difference at p<0.05 vs. the respective vehicle treated group.\nLevels of NRH and other NAD-related metabolites in biological samples were obtained by using a cold liquid-liquid extraction using a mixture of methanol:water:chloroform in 5:3:5 (v/v), from which the polar phase was recovered for hydrophilic interaction ultra-high performance liquid chromatography mass spectrometry (UHPLC-MS) analysis. The UHPLC consisted of a binary pump, a cooled autosampler, and a column oven (DIONEX Ultimate 3000 UHPLC+ Focused, Thermo Scientific), connected to a triple quadrupole spectrometer (TSQ Vantage, Thermo Scientific) equipped with a heated electrospray ionisation (H-ESI) source. Of each sample, 2 μL were injected into the analytical column (2.1 mm×150 mm, 5 μm pore size, 200 Å HILICON iHILIC®-Fusion(P)), guarded by a pre-column (2.1 mm×20 mm, 200 Å HILICON iHILIC®-Fusion(P) Guard Kit) operating at 35° C. The mobile phase (10 mM ammonium acetate at pH 9, A, and acetonitrile, B) was pumped at 0.25 mL/min flow rate over a linear gradient of decreasing organic solvent (0.5-16 min, 90-25% B), followed by re-equilibration for a total run time of 30 min. The MS operated in positive mode at 3500 V with multiple reaction monitoring (MRM). The software Xcalibur v4.1.31.9 (Thermo Scientific) was used for instrument control, data acquisition and processing. Retention time and mass detection was confirmed by authentic standards.\nA path in which NRH would be converted to NMNH, then to NADH and this would be finally oxidized to NAD+.\nIn order to understand the exact path by which NRH synthesizes NAD+, we initially evaluated whether NRH, could be transported into the cell by equilibrative nucleoside transporters (ENTs).\nThe action of NRH was also NAMPT-independent, based on experiments using FK866, a NAMPT inhibitor. If NRH led to NAD+ synthesis via the formation of NMNH, this hypothetical path would require the phosphorylation of NRH into NMNH. Given the essential and rate-limiting role of NRK1 in NR phosphorylation, we wondered whether the ability of NRH to boost NAD+ levels was NRK1 dependent. To answer this question, we evaluated NRH action in primary hepatocytes from either control or NRK1 knockout (NRK1KO) mice. […] Further, they rule out the possibility that NRH-induced NAD+ […] is driven by NRH oxidation into NR.\nConsidering the molecular structure of NRH, we reasoned that an alternative nucleoside kinase could be responsible for the phosphorylation of NRH. […] The role of AK in NRH-mediated NAD+ synthesis was confirmed using a second, structurally different, AK inhibitor, ABT-702. Metabolomic analyses further confirmed that upon inhibition of AK, the generation of NMNH, NADH and NAD+ was fully blunted, even if NRH was effectively entering the cell.\nAs a follow-up step, NMNAT enzymes could catalyze the transition from NMNH to NADH. […] Yet, part of the NRH action remained after gallotannin treatment when NRH was used at maximal doses."}, "AML12 hepatocytes": {"system": "AML12 hepatocytes", "test": "Intracellular NAD+ levels in AML12 hepatocytes treated with NRH or NR", "format": "cell-based", "procedure": "Even at such relatively low dose, NRH achieved similar increases in intracellular NAD+ levels to those reached with NR at 50-fold higher concentrations.\nNRH actions were also extremely fast (FIG. 3), as significant increases in NAD+ levels were observed within 5 minutes after NRH treatment."}, "Stability in water": {"test": "Stability in water", "format": "physicochemical", "settings": "pH=7, at room temperature", "procedure": "NR degradation to NAM has been proposed as a limitation for its pharmacological efficacy. To evaluate whether NRH was also susceptible to degradation to NAM, we spiked NRH or NR in isolated mouse plasma. […] We also tested the stability of NRH in other matrixes. […] Finally, we also certified NRH stability in water (pH=7, at room temperature) for 48 h."}, "INS-1E cells": {"system": "INS-1E cells", "test": "Lipotoxicity (palmitic acid)-induced pancreatic β-cell death, cell viability", "format": "cell-based", "settings": "palmitic acid 0.4 mM, 24 hours, NRH 0.1 mM", "procedure": "INS-1E cells were treated with BSA-conjugated palmitic acid (0.4 mM) for 24 hrs in the presence or absence of NRH (0.1 mM). PBS was used as vehicle for NRH, while fatty-acid free BSA was used as control for palmited treatment. After 24 hrs, cell viability was evaluated by luminescence using a commercial kit (Cell Title-Glow; Promega). All results are expressed as mean+/−SEM of n=8 experiments. * indicates P<0.05 vs. the respective vehicle treated group.\nINS-1E cells were treated with BSA-conjugated palmitic acid (0.4 mM) for 24 hours in the presence or absence of NRH (0.1 mM). PBS was used as vehicle for NRH, while fatty-acid free BSA was used as control for palmited treatment. After 24 hours, cell viability was evaluated by luminescence using a commercial kit (Cell Title-Glow; Promega)."}},
  "data": [
    {"smiles": "NC(=O)C1=CN([C@@H]2O[C@H](CO)[C@@H](O)[C@H]2O)C=CC1", "note": "[NRH]", "values": [
      {"measurement": "Effect on hepatic NAD+ levels compared with NR", "setting": "mice", "result": "more potent effect on hepatic NAD+ levels than NR"},
      {"measurement": "NAD+ levels", "setting": "C2C12 myotubes", "result": "highly elevated"},
      {"measurement": "Intracellular detection of NRH and NMNH", "setting": "AML12 cells; 5 minutes after treatment", "result": "could be detected"},
      {"measurement": "Increase in intracellular NR and NMN", "setting": "AML12 cells; after NRH treatment, vs NR treatment", "result": "greater than that triggered by NR itself"},
      {"measurement": "Capacity as extracellular NAD+ precursor under ENT blockage", "setting": "AML12 cells; in the presence of S-(4-nitrobenzyl)-6-thioinosine (NBTI)", "result": "largely lost its capacity"},
      {"measurement": "Generation of NMNH, NADH and NAD+ from NRH upon inhibition of AK", "setting": "AML12 cells; metabolomic analyses", "result": "fully blunted"},
      {"measurement": "Dependence of NAD+ increase on NAMPT", "setting": "AML12 cells; with FK866, a NAMPT inhibitor", "result": "NAMPT-independent"},
      {"measurement": "Ability to increase intracellular NAD+ compared with NR", "setting": "AML12 hepatocytes; AML12 hepatocytes", "result": "superior to that of NR"},
      {"measurement": "Concentration range of maximal effects on NAD+ synthesis", "setting": "AML12 hepatocytes; AML12 hepatocytes", "result": "around the millimolar range"},
      {"measurement": "Time after treatment at which significant increases in NAD+ levels were observed", "setting": "AML12 hepatocytes; AML12 hepatocytes (FIG. 3)", "result": "≤ 5", "unit": "min"},
      {"measurement": "Fold higher NR concentration needed for similar increase in intracellular NAD+ as NRH at 10 μM", "setting": "AML12 hepatocytes; AML12 hepatocytes, NRH 10 μM vs NR", "result": 50, "unit": "fold"},
      {"measurement": "Increase of intracellular NAD+ levels at maximal effect", "setting": "AML12 hepatocytes; AML12 hepatocytes, around the millimolar range", "result": "more than 10 fold"},
      {"measurement": "Concentration at which NAD+ levels are significantly increased", "setting": "AML12 hepatocytes; AML12 hepatocytes, dose-response (FIG. 2)", "result": 10, "unit": "µM"},
      {"measurement": "Stability in water, duration", "setting": "Stability in water", "result": 48, "unit": "h"},
      {"measurement": "Cell viability under BSA-conjugated palmitic acid", "setting": "INS-1E cells", "result": "protects against lipotoxicity-induced pancreatic β-cell death"}
    ]}
  ]
}
